Results: patent publication US5283372A, “Preparation of purified optical isomers of desflurane” (Anaquest, Inc., priority 1993, dated 1994)
“Also recorded” adds a separate entry of the source.

Legend:
[1] = system: Male Swiss-Webster mice (loss of righting); assay: Loss of righting (LOR) in mice: potency, onset and recovery of inhaled anesthetic; type: in vivo, mouse (Swiss-Webster); conditions: mouse; for Recovery (mean time to ambulation) / Onset (mean time to LOR): at the EC50 concentration; for Onset (mean time to LOR): six animals; for EC50 (loss of righting): inhalation in 1900 ml container flushed with 100% oxygen, LOR within two minutes and supine for thirty seconds, * significant at P<0.05
Protocol: Male Swiss-Webster mice, about 22-25 g, were allowed free access to food and water and housed ten to a cage in a temperature (22.2°) and humidity (50%) controlled vivarium with a twelve hour light-dark cycle.
The test anesthetic was pipetted into a 1900 ml container previously flushed for one minute with 100% oxygen. The container was sealed, rotated to insure complete evaporation of test compound and allowed to stand for five minutes. The approximate concentration of the anesthetic was calculated. Six animals were tested at each concentration of racemate and its purified optical isomers. The animals were placed in the container in groups of three. The container was rotated periodically.
The percentage of mice to lose their righting ability within two minutes and remain supine for thirty seconds was noted. Loss of righting (LOR) at four concentrations, including EC0 and EC100, were used to determine the EC50. Subsequently, onset (defined as the mean time for six animals to LOR) and recovery (defined as the mean time to ambulation) were determined at the EC50 concentration. Potency (defined by the dose-response curve) of each compound was compared using a parallel line analysis. Onset and recovery means were compared using a Student's T-Test P<0.05. The results are reported in Table I. In the Table, "S.D." is standard deviation, "C.L." is confidence level and "EC50 " is the effective concentration in one half of the animals tested.

[2] = system: Male Sprague-Dawley rats (loss of righting); assay: Loss of righting (LOR) in rats: onset and recovery at EC100; type: in vivo, rat (Sprague-Dawley); conditions: rat; for Recovery (of righting): EC100 concentration, removed five minutes after LOR; for Onset of LOR: at EC100 concentration, five rats per anesthetic
Protocol: (§1) Male Sprague-Dawley rats were maintained as were the mice in Example 7. The animals were trained to maintain their balance for ninety seconds on a rotarod revolving at 10 rpm. The animals were allowed to rest five minutes and again trained to remain on the rotating rotarod for ninety seconds.
(§2) The rats were individually placed into containers which had been purged with 100% oxygen for one minute, and which contained a known concentration of racemic desflurane, or its positive isomer or negative isomer which had been previously determined to be equal to the EC100. Five rats were utilized for each anesthetic.
The onset of LOR was recorded for each animal. The animals remained in the container for five minutes following LOR, and were then removed. Recovery was determined, and the mean calculated.
Onset and recovery were compared across anesthetics using a Student's T Test.

[3] = system: Male Sprague-Dawley rats (recovery of motor coordination); assay: Rotarod testing in rats after recovery of righting (Rotarod Index); type: in vivo, rat (Sprague-Dawley); conditions: for Rotarod Index (ROI): ROI=(First+Second×2/3+Third×1/3)/3, average time on rod in seconds at 0, 90, 180 seconds after recovery of righting, maximum 60, rotarod 10 rpm
Protocol: as §1, §2
Following recovery of righting, the animals were placed on the rotarod 0, 90, and 180 seconds thereafter and the length of time they were able to remain on the rod was recorded in each instance. Animals that remained on the rod for a full ninety seconds were not subsequently tested. The durations of maintaining balance were noted and averaged, and the number of animals meeting the ninety second criterion were recorded at each time interval.
A Rotarod Index (ROI) was then calculated according to the following formula.
ROI=(First+Second×2/3+Third×1/3)/3 where First, Second and Third are the average time on the rod in seconds for the respective time intervals. Animals remaining on the rod for the full ninety seconds during either the interval beginning at zero time or ninety seconds were scored with ninety seconds for all subsequent intervals. Therefore, the maximum ROI attainable was […]. The ROI value measures the recovery of motor coordination following drug-induced LOR.

SMILES	Recovery (mean time to ambulation) [1] [min]	Onset (mean time to LOR) [1] [min]	EC50 (loss of righting) [1] [%]	Recovery (of righting) [2] [min]	Onset of LOR [2] [min]	Rotarod Index (ROI) ([3]; rat)	Potency (in words) ([1]; highly purified positive isomer, comparison with negative isomer or racemate, listed as positive isomer of desflurane)	Rotarod test / time to become "street fit" (in words) ([3]; comparison with racemate and negative isomer)	ROI value (in words) ([3]; rat, comparison of isomers)	Recovery time (in words) ([2]; comparison of isomers)
FC(F)OC(F)C(F)(F)F (racemic) [Racemic Desflurane, 2-(difluoromethoxy)-1,1,1,2-tetrafluoroethane, reference compound]	0.12	1.72	4.75	1.38	1.04	32.4	–	–	–	–
FC(F)OC(F)C(F)(F)F (single isomer, unassigned; (+)) [Positive Isomer, (+)-2-(difluoromethoxy-1,1,1,2-tetrafluoroethane]	0.31	1.44	4.1	0.88	0.92	38.6	greater potency; also recorded: improved potency	clearly superior in the rotarod test; also recorded: superior to the racemate and the negative isomer in terms of the time in which a patient would become "street fit"	larger ROI value	–
FC(F)OC(F)C(F)(F)F (single isomer, unassigned; (-)) [Negative Isomer, (-)-2-(difluoromethoxy)-1,1,1,2-tetrafluoroethane]	0.25	1.05	4.6	0.31	1.05	28.8	–	–	–	faster recovery time
